# Source: the supplement of paper PMC10307832
# Assays:
# Assay in all cases: relative viability (nuclei count vs DMSO), 5 days (fraction); higher = more cells survive
# [1] = compound: CCN(CCO)CCCC(C)Nc1ccnc2cc(Cl)ccc12 [Hydroxychloroquine] + COc1cc2c(Oc3ccc(NC(=O)C4(C(=O)Nc5ccc(F)cc5)CC4)cc3F)ccnc2cc1OCCCN1CCOCC1 [Foretinib] (partner 0.25 µM)
# Summary of the method: (§1)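 Values are medians from duplicate plates. Each reflects relative viability, defined as the nuclei count of treated wells over that of vehicle wells. Lung cancer cell lines in 1536-well plates were pin-tool dosed one day after seeding with one drug alone or with a fixed anchor-drug dose plus five library-drug doses (not always all listed) in √10 steps, then fixed, stained and imaged at 4× after 5 days.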
# [2] = compound: CCN(CCO)CCCC(C)Nc1ccnc2cc(Cl)ccc12 [Hydroxychloroquine] + Cc1nc(NC(=O)N2CCC[C@H]2C(N)=O)sc1-c1ccnc(C(C)(C)C(F)(F)F)c1 [Alpelisib] (partner 2 µM)
# Summary of the method: as §1
# [3] = compound: CCN(CCO)CCCC(C)Nc1ccnc2cc(Cl)ccc12 [Hydroxychloroquine] + Nc1nc2[nH]cc(CCc3ccc(C(=O)N[C@@H](CCC(=O)O)C(=O)O)cc3)c2c(=O)[nH]1 [Pemetrexed] (partner 0.2 µM)
# Summary of the method: as §1
# [4] = compound: CCN(CCO)CCCC(C)Nc1ccnc2cc(Cl)ccc12 [Hydroxychloroquine] + O=C(c1cc(Cc2n[nH]c(=O)c3ccccc23)ccc1F)N1CCN(C(=O)C2CC2)CC1 [Olaparib] (partner 8 µM)
# Summary of the method: as §1
Cell Line,relative viability ([1]; first compound 0.5 µM),relative viability ([1]; first compound 1.581 µM),relative viability ([1]; first compound 5 µM),relative viability ([1]; first compound 15.81 µM),relative viability ([1]; first compound 50 µM),relative viability ([2]; first compound 0.5 µM),relative viability ([2]; first compound 1.581 µM),relative viability ([2]; first compound 5 µM),relative viability ([2]; first compound 15.81 µM),relative viability ([2]; first compound 50 µM),relative viability ([3]; first compound 0.5 µM),relative viability ([3]; first compound 1.581 µM),relative viability ([3]; first compound 5 µM),relative viability ([3]; first compound 15.81 µM),relative viability ([3]; first compound 50 µM),relative viability ([4]; first compound 0.5 µM),relative viability ([4]; first compound 1.581 µM),relative viability ([4]; first compound 5 µM),relative viability ([4]; first compound 15.81 µM),relative viability ([4]; first compound 50 µM)
NCI-H1651,0.934,0.762,0.865,0.925,0.88,0.963,0.926,1.05,1.04,0.989,0.628,0.626,0.602,0.597,0.449,0.178,0.193,0.191,0.18,0.197
NCI-H2023,0.806,0.739,0.749,0.779,0.776,0.547,0.47,0.636,0.605,0.601,0.267,0.22,0.246,0.238,0.295,0.566,0.405,0.501,0.479,0.466
COR-L 105,0.896,1.11,0.951,1.23,0.997,1.13,1,1.08,0.765,0.87,1.12,1.01,0.967,1.05,1.08,0.675,0.612,0.596,0.519,0.744
NCI-H1734,0.893,0.864,0.864,0.784,0.866,0.674,0.696,0.362,0.781,0.668,0.46,0.398,0.408,0.427,0.427,0.525,0.601,0.626,0.616,0.635
NCI-H3122,0.92,0.934,0.945,0.985,1.03,0.798,0.736,0.822,0.779,0.8,0.189,0.205,0.359,0.188,0.199,0.623,0.646,0.676,0.664,0.729
CAL-12T,0.974,1.04,1.04,1.33,1.06,1.24,1.16,1.32,1.42,1.69,1.15,1.18,1.31,1.27,1.33,0.693,0.63,0.782,0.689,0.68
HCC-78,0.602,0.498,0.482,0.488,0.553,0.394,0.299,0.316,0.331,0.31,0.927,0.973,0.902,0.891,0.959,0.899,0.841,0.794,0.864,0.923
NCI-H2085,1.09,1.02,0.932,0.931,0.98,0.91,0.998,0.973,0.914,0.917,0.885,0.773,0.838,0.809,0.9,0.74,0.769,0.817,0.739,0.774
